From patent US20260256925A1, “INDAZOLE DERIVATIVES AS ESTROGEN RECEPTOR DEGRADERS” (REGENTS OF THE UNIVERSITY OF MICHIGAN, priority 2022, published 2026)

Columns and labels:
[1] = molecular target: T1, ER (Homo sapiens, UniProt P03372); test: In-cell western blot analysis, relative ER percentage (compounds B1-B126); assay type: cell-based; conditions: ER degradation, 16 hours, read-out: ICW DC50
T1 construct: endogenous in cells; probably T47D or MCF-7
T1 sequence (P03372 1-595): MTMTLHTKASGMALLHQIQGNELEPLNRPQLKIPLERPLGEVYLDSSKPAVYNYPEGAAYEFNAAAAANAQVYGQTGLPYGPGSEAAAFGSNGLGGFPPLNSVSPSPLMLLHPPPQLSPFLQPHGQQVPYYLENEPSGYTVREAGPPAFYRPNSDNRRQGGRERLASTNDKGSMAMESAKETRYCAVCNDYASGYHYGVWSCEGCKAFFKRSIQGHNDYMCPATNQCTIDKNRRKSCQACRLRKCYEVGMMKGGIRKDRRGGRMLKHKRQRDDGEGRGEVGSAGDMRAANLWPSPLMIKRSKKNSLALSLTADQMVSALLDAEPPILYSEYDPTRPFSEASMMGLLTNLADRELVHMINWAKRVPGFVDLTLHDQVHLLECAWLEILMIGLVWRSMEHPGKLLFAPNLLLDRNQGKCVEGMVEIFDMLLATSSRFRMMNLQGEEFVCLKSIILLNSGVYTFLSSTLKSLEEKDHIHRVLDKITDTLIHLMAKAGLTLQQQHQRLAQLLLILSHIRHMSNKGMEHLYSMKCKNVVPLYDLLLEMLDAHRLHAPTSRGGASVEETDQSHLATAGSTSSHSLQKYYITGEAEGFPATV
Summary of the method: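 Readout was a two-colour infrared in-cell western of formaldehyde-fixed cells after 16 h compound exposure at 0.5% DMSO, with 40,000 or 10,000 cells/well plated the previous night. Relative ER percentage compares treated wells against untreated/DMSO-treated wells taken as 100%.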

[2] = Cell growth assay, WST-8 (compounds B1-B126); assay type: cell-based; conditions: 96 h; T47D cell line, WST-8, 4 days; read-out: Cell growth inhibition in T47D cell line IC50
Summary of the method: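 Read-out is WST-8 absorbance at 450 nm (2.5 h, 37° C) as a fraction of vehicle control, from three separate repeats. Compound exposure lasted 4 days, starting one day after plating 1500 cells/well.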

SMILES | DC50 [1] | IC50 [2]
C[C@@H]1Cc2c(ccc3[nH]ncc23)[C@@H](c2ccc(N3CCC4(CCC(CN5CCN6c7ccc8c(c7OCC6C5)CN([C@H]5CCC(=O)NC5=O)C8=O)CO4)CC3)nn2)N1CC(F)(F)F (stereo partly drawn) [Compound B127, (3S)-3-(7-((9-(6-((6S,8R)-8-methyl-7-(2,2,2-trifluoroethyl)-6,7,8,9-tetrahydro-3H-pyrazolo[4,3-f]isoquinolin-6-yl)pyridazin-3-yl)-1-oxa-9-azaspiro[5.5]undecan-3-yl)methyl)-1-oxo-1,3,5,5a,6,7,8,9-octahydro-2H-pyrazino[1′,2′:4,5][1,4]oxazino[2,3-e]isoindol-2-yl)piperidine-2,6-dione] | < 0.01 µM | < 0.001 µM
C[C@@H]1Cc2c(ccc3[nH]ncc23)[C@@H](c2cnc(N3CCC4(CC3)CC(CN3CCN5c6ccc7c(c6OC[C@H]5C3)CN(C3CCC(=O)NC3=O)C7=O)C4)nc2)N1CC(F)(F)F (stereo partly drawn) [Compound B112, 3-((R)-7-((7-(5-((6S,8R)-8-methyl-7-(2,2,2-trifluoroethyl)-6,7,8,9-tetrahydro-3H-pyrazolo[4,3-f]isoquinolin-6-yl)pyrimidin-2-yl)-7-azaspiro[3.5]nonan-2-yl)methyl)-1-oxo-1,3,5,5a,6,7,8,9-octahydro-2H-pyrazino[1′,2′:4,5][1,4]oxazino[2,3-e]isoindol-2-yl)piperidine-2,6-dione] | < 0.01 µM | < 0.001 µM
C[C@@H]1Cc2c(ccc3[nH]ncc23)[C@@H](c2c(F)cc(NC3CN(C(=O)CN4CCN5c6cc7c(cc6OC[C@@H]5C4)C(=O)N(C4CCC(=O)NC4=O)C7)C3)cc2F)N1CC(F)F (stereo partly drawn) [Compound B26, 3-((S)-3-(2-(3-((4-((6S,8R)-7-(2,2-difluoroethyl)-8-methyl-6,7,8,9-tetrahydro-3H-pyrazolo[4,3-f]isoquinolin-6-yl)-3,5-difluorophenyl)amino)azetidin-1-yl)-2-oxoethyl)-8-oxo-1,2,3,4,4a,5,8,10-octahydro-9H-pyrazino[1′,2′:4,5][1,4]oxazino[2,3-f]isoindol-9-yl)piperidine-2,6-dione] | < 0.01 µM | < 0.001 µM
C[C@@H]1Cc2c(ccc3[nH]ncc23)[C@@H](c2c(F)cc(N3CCC4(CCN(C(=O)CN5CCN6c7cc8c(cc7OC[C@@H]6C5)C(=O)N(C5CCC(=O)NC5=O)C8)CC4)C3)cc2F)N1CC(F)F (stereo partly drawn) [Compound B23, 3-((S)-3-(2-(2-(4-((6S,8R)-7-(2,2-difluoroethyl)-8-methyl-6,7,8,9-tetrahydro-3H-pyrazolo[4,3-f]isoquinolin-6-yl)-3,5-difluorophenyl)-2,8-diazaspiro[4.5]decan-8-yl)-2-oxoethyl)-8-oxo-1,2,3,4,4a,5,8,10-octahydro-9H-pyrazino[1′,2′:4,5][1,4]oxazino[2,3-f]isoindol-9-yl)piperidine-2,6-dione] | < 0.01 µM | < 0.001 µM
C[C@@H]1Cc2c(ccc3[nH]ncc23)[C@@H](c2c(F)cc(NC3CN(CC(=O)N4CCN5c6cc7c(cc6OC[C@@H]5C4)C(=O)N(C4CCC(=O)NC4=O)C7)C3)cc2F)N1CC(F)F (some centres unmarked) [Compound B27] | 0.01 to 0.1 µM | < 0.001 µM
C[C@@H]1Cc2c(ccc3[nH]ncc23)[C@@H](c2ccc(N3CCC4(CC3)CC(CN3CCN5c6ccc(C(=O)N[C@H]7CCC(=O)NC7=O)nc6OC[C@H]5C3)CO4)cn2)N1CC(F)(F)F (stereo partly drawn) [Compound B93, (4aR)-N-((S)-2,6-dioxopiperidin-3-yl)-3-((8-(6-((6S,8R)-8-methyl-7-(2,2,2-trifluoroethyl)-6,7,8,9-tetrahydro-3H-pyrazolo[4,3-f]isoquinolin-6-yl)pyridin-3-yl)-1-oxa-8-azaspiro[4.5]decan-3-yl)methyl)-1,2,3,4,4a,5-hexahydropyrazino[1,2-d]pyrido[2,3-b][1,4]oxazine-8-carboxamide] | 0.01 to 0.1 µM | 0.001 to 0.01 µM
C[C@@H]1Cc2c(ccc3[nH]ncc23)[C@@H](c2c(F)cc(NC3CC4(C3)CN(C(=O)CN3Cc5cc6c(cc5C3)C(=O)N(C3CCC(=O)NC3=O)C6=O)C4)cc2F)N1CC(F)F (stereo partly drawn) [Compound B44, 6-(2-(6-((4-((6S,8R)-7-(2,2-difluoroethyl)-8-methyl-6,7,8,9-tetrahydro-3H-pyrazolo[4,3-f]isoquinolin-6-yl)-3,5-difluorophenyl)amino)-2-azaspiro[3.3]heptan-2-yl)-2-oxoethyl)-2-(2,6-dioxopiperidin-3-yl)-6,7-dihydropyrrolo[3,4-f]isoindole-1,3(2H,5H)-dione] | < 0.01 µM | < 0.001 µM
C[C@@H]1Cc2c(ccc3[nH]ncc23)[C@@H](c2c(F)cc(N3CC4(CCN(CC(=O)N5CCN6c7cc8c(cc7OC[C@@H]6C5)C(=O)N(C5CCC(=O)NC5=O)C8)CC4)C3)cc2F)N1CC(F)F (stereo partly drawn) [Compound B33, 3-((S)-3-(2-(2-(4-((6S,8R)-7-(2,2-difluoroethyl)-8-methyl-6,7,8,9-tetrahydro-3H-pyrazolo[4,3-f]isoquinolin-6-yl)-3,5-difluorophenyl)-2,7-diazaspiro[3.5]nonan-7-yl)acetyl)-8-oxo-1,2,3,4,4a,5,8,10-octahydro-9H-pyrazino[1′,2′:4,5][1,4]oxazino[2,3-f]isoindol-9-yl)piperidine-2,6-dione] | < 0.01 µM | < 0.001 µM
COc1cc(N2CCC3(CC2)OCC(CN2CCC4(CC2)COc2c4ccc4c2CN(C2CCC(=O)NC2=O)C4=O)CO3)ccc1[C@@H]1c2ccc3[nH]ncc3c2C[C@@H](C)N1CC(F)F (stereo partly drawn) [Compound B117, 3-(1′-((9-(4-((6S,8R)-7-(2,2-difluoroethyl)-8-methyl-6,7,8,9-tetrahydro-3H-pyrazolo[4,3-f]isoquinolin-6-yl)-3-methoxyphenyl)-1,5-dioxa-9-azaspiro[5.5]undecan-3-yl)methyl)-6-oxo-6,8-dihydro-2H,7H-spiro[furo[2,3-e]isoindole-3,4′-piperidin]-7-yl)piperidine-2,6-dione] | < 0.01 µM | < 0.001 µM
COc1cc(N2CCC3(CC2)OCC(CN2CCN4c5ccc6c(c5OC[C@@H]4C2)CN([C@@H]2CCC(=O)NC2=O)C6=O)CO3)ccc1[C@@H]1c2ccc3[nH]ncc3c2C[C@@H](C)N1CC(F)F [Compound B116, (R)-3-((S)-7-((9-(4-((6S,8R)-7-(2,2-difluoroethyl)-8-methyl-6,7,8,9-tetrahydro-3H-pyrazolo[4,3-f]isoquinolin-6-yl)-3-methoxyphenyl)-1,5-dioxa-9-azaspiro[5.5]undecan-3-yl)methyl)-1-oxo-1,3,5,5a,6,7,8,9-octahydro-2H-pyrazino[1′,2′:4,5][1,4]oxazino[2,3-e]isoindol-2-yl)piperidine-2,6-dione] | < 0.01 µM | < 0.001 µM
C[C@@H]1Cc2c(ccc3[nH]ncc23)[C@@H](c2ccc(N3CCC4(CCC(CN5CCC6(CC5)COc5c6ccc6c5CN([C@H]5CCC(=O)NC5=O)C6=O)CO4)CC3)nn2)N1CC(F)(F)F (stereo partly drawn) [Compound B128, (3S)-3-(1′-((9-(6-((6S,8R)-8-methyl-7-(2,2,2-trifluoroethyl)-6,7,8,9-tetrahydro-3H-pyrazolo[4,3-f]isoquinolin-6-yl)pyridazin-3-yl)-1-oxa-9-azaspiro[5.5]undecan-3-yl)methyl)-6-oxo-6,8-dihydro-2H,7H-spiro[furo[2,3-e]isoindole-3,4′-piperidin]-7-yl)piperidine-2,6-dione] | < 0.01 µM | < 0.001 µM
C[C@@H]1Cc2c(ccc3[nH]ncc23)[C@@H](c2ccc(N3CCC4(CC3)CC(CN3CCC5(CC3)COc3c5ccc5c3CN(C3CCC(=O)NC3=O)C5=O)CO4)cn2)N1CC(F)(F)F (stereo partly drawn) [Compound B95, 3-(1′-((8-(6-((6S,8R)-8-methyl-7-(2,2,2-trifluoroethyl)-6,7,8,9-tetrahydro-3H-pyrazolo[4,3-f]isoquinolin-6-yl)pyridin-3-yl)-1-oxa-8-azaspiro[4.5]decan-3-yl)methyl)-6-oxo-6,8-dihydro-2H,7H-spiro[furo[2,3-e]isoindole-3,4′-piperidin]-7-yl)piperidine-2,6-dione] | > 0.1 µM | < 0.001 µM
COc1cc(N2CCC3(CC2)CC(CN2CCN4c5ccc6c(c5OC[C@H]4C2)CN(C2CCC(=O)NC2=O)C6=O)CO3)ccc1[C@@H]1c2ccc3[nH]ncc3c2C[C@@H](C)N1CC(F)F (stereo partly drawn) [Compound B80, 3-((5aR)-7-((8-(4-((6S,8R)-7-(2,2-difluoroethyl)-8-methyl-6,7,8,9-tetrahydro-3H-pyrazolo[4,3-f]isoquinolin-6-yl)-3-mcthoxyphenyl)-1-oxa-8-azaspiro[4.5]decan-3-yl)methyl)-1-oxo-1,3,5,5a,6,7,8,9-octahydro-2H-pyrazino[1′,2′:4,5][1,4]oxazino[2,3-e]isoindol-2-yl)piperidine-2,6-dione] | < 0.01 µM | < 0.001 µM
